According to patent publication US20100298141A1, “SUBSTITUTED PYRIDINE N-OXIDE HERBICIDES” (E. I. DU PONT DE NEMOURS AND COMPANY, priority 2007, published 2010):

Key:
pigweed = test: Test C pre-/postemergence test; type: in vivo, Amaranthus retroflexus
Excerpt: (§1) Seeds of plant species selected from blackgrass (Alopecurus myosuroides), downy brome (Bromus tectorum), green foxtail (Setaria viridis), Italian ryegrass (Lolium multiflorum), wheat (Triticum aestivum), wild oat (Avena fatua), catchweed bedstraw (Galium aparine), Russian thistle (Salsola kali), […] (Cynodon dactylon), Surinam grass (Brachiaria decumbens), cocklebur (Xanthium strumarium), corn (Zea mays), crabgrass (Digitaria sanguinalis), woolly cupgrass (Eriochloa villosa), giant foxtail (Setaria faberii), Goosegrass (Eleusin indica), johnsongrass (Sorghum halepense), kochia (Kochia scoparia), lambsquarters (Chenopodium album), morningglory (Ipomoea coccinea), eastern black nightshade (Solanum ptycanthum), yellow nutsedge (Cyperus esculentus), pigweed (Amaranthus retroflexus), common ragweed (Ambrosia elation), soybean (Glycine max), common (oilseed) sunflower (Helianthus annuus), and velvetleaf (Abutilon theophrasti) were planted and treated preemergence with test chemicals formulated in a non-phytotoxic solvent mixture which included a surfactant. At the same time, plants selected from these crop and weed species and also winter barley (Hordeum vulgare), canarygrass (Phalaris minor), and chickweed (Stellaria media) were treated with postemergence applications of some of the test chemicals formulated in the same manner. Plants ranged in height from 2 to 18 cm (1- to 4-leaf stage) for postemergence treatments. […] At time of treatment, test pots were flooded to 3 cm above the soil surface, treated by application of test compounds directly to the paddy water, and then maintained at that water depth for the duration of the test. […] A dash (-) response means no test result.

corn [1] = test: Test C pre-/postemergence test; type: in vivo, Zea mays
Excerpt: as §1

corn [2] = test: Test A pre-/postemergence greenhouse test; type: in vivo, Zea mays; conditions: for Corn plant response rating: 0 to 100 scale
How it was run: (§2)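 Planting was into mixed loam soil and sand; preemergence treatment followed as a directed soil spray. Concurrently, emerged plants (one- to two-leaf, 2–10 cm) received postemergence applications of identically formulated compound (non-phytotoxic solvent, surfactant). After approximately ten days under greenhouse conditions, injury was judged by eye against untreated plants.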

crabgrass [3] = test: Test C pre-/postemergence test; type: in vivo, Digitaria sanguinalis
Excerpt: as §1

Goosegrass = test: Test C pre-/postemergence test; type: in vivo, Eleusin indica
Excerpt: as §1

crabgrass [4] = test: Test A pre-/postemergence greenhouse test; type: in vivo, Digitaria sanguinalis; conditions: for Crabgrass, Large plant response rating: 0 to 100 scale
How it was run: as §2

yellow nutsedge = test: Test C pre-/postemergence test; type: in vivo, Cyperus esculentus
Excerpt: as §1

barnyardgrass [5] = test: Test C flooded paddy test; type: in vivo, Echinochloa crus-galli; conditions: Flood
How it was run: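 Visual injury ratings against untreated controls, taken 13 to 15 days after compound was added to paddy water standing 3 cm above the soil.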

Italian ryegrass = test: Test C pre-/postemergence test; type: in vivo, Lolium multiflorum
Excerpt: as §1

velvetleaf = test: Test A pre-/postemergence greenhouse test; type: in vivo, Abutilon theophrasti; conditions: for Velvetleaf plant response rating: 0 to 100 scale
How it was run: as §2

johnsongrass = test: Test C pre-/postemergence test; type: in vivo, Sorghum halepense
Excerpt: as §1

barnyardgrass [6] = test: Test A pre-/postemergence greenhouse test; type: in vivo, Echinochloa crus-galli; conditions: for Barnyardgrass plant response rating: 0 to 100 scale
How it was run: as §2

green foxtail = test: Test C pre-/postemergence test; type: in vivo, Setaria viridis
Excerpt: as §1

soybean = test: Test C pre-/postemergence test; type: in vivo, Glycine max
Excerpt: as §1

bermudagrass = test: Test C pre-/postemergence test; type: in vivo, Cynodon dactylon
Excerpt: as §1

[7] = 31 g ai/ha, Preemergence, scale 0 to 100
[8] = 62 g ai/ha, preemergence, scale 0 (no effect) to 100 (complete control)
[9] = preemergence, 125 g ai/ha, scale 0 (no effect) to 100 (complete control)
[10] = Postemergence, 125 g ai/ha, 0 is no effect, 100 is complete control
[11] = Postemergence, 500 g ai/ha, 0 is no effect, 100 is complete control
[12] = Preemergence, 125 g ai/ha, 0 no effect, 100 complete control
[13] = Preemergence, 500 g ai/ha, 0 to 100 scale where 0 is no effect and 100 is complete control

Cn1nc(C(F)(F)F)c(CS(=O)(=O)c2cccc[n+]2[O-])c1OC(F)F [Compound 4]
50: Corn plant response rating (corn [1]; [8]) | Velvetleaf plant response rating (velvetleaf; [10]) | Velvetleaf plant response rating (velvetleaf; [12])
60: Corn plant response rating (corn [2]; [11]) | Ryegrass, Italian plant response rating (Italian ryegrass; [8])
95: Johnsongrass plant response rating (johnsongrass; [7]) | Johnsongrass plant response rating (johnsongrass; [8])
0: Corn plant response rating (corn [1]; [7]) | Plant response rating, Barnyardgrass (barnyardgrass [5]; 31 g ai/ha, scale 0 to 100 (0 no effect, 100 complete control)) | Ryegrass, Italian plant response rating (Italian ryegrass; [7]) | Soybean plant response rating (soybean; [7]) | Soybean plant response rating (soybean; [9])
90: Plant response rating, Barnyardgrass (barnyardgrass [5]; 250 g ai/ha, scale 0 to 100 (0 no effect, 100 complete control)) | Plant response rating, Velvetleaf (velvetleaf; [13])
85: Nutsedge, Yellow plant response rating (yellow nutsedge; [7]) | Plant response rating, Barnyardgrass (barnyardgrass [5]; 125 g ai/ha, scale 0 to 100, 0 no effect, 100 complete control, 13 to 15 days)
35: Plant response rating, Barnyardgrass (barnyardgrass [5]; 62 g ai/ha, scale 0 to 100, 0 no effect, 100 complete control, 13 to 15 days)
30: Corn plant response rating (corn [2]; [10])
98: Crabgrass, Large plant response rating (crabgrass [3]; [7])
100: Pigweed plant response rating (pigweed; [7]) | Pigweed plant response rating (pigweed; [8]) | Plant response rating (0 to 100), Pigweed (pigweed; Preemergence, 250 g ai/ha) | Pigweed plant response rating (pigweed; [9]) | Crabgrass, Large plant response rating (crabgrass [3]; [8]) | Plant response rating (0 to 100), Crabgrass, Large (crabgrass [3]; Preemergence, 250 g ai/ha) | Crabgrass, Large plant response rating (crabgrass [3]; [9]) | Goosegrass plant response rating (Goosegrass; [7]) | Goosegrass plant response rating (Goosegrass; [8]) | Plant response rating (0 to 100), Goosegrass (Goosegrass; Preemergence, 250 g ai/ha) | Goosegrass plant response rating (Goosegrass; [9]) | Crabgrass, Large plant response rating (crabgrass [4]; [12]) | Plant response rating, Crabgrass, Large (crabgrass [4]; [13]) | Nutsedge, Yellow plant response rating (yellow nutsedge; [8]) | Plant response rating (0 to 100), Nutsedge, Yellow (yellow nutsedge; Preemergence, 250 g ai/ha) | Nutsedge, Yellow plant response rating (yellow nutsedge; [9]) | Plant response rating (0 to 100), Ryegrass, Italian (Italian ryegrass; Preemergence, 250 g ai/ha) | Ryegrass, Italian plant response rating (Italian ryegrass; [9]) | Plant response rating (0 to 100), Johnsongrass (johnsongrass; Preemergence, 250 g ai/ha) | Johnsongrass plant response rating (johnsongrass; [9]) | Plant response rating, Barnyardgrass (barnyardgrass [6]; [13]) | Foxtail, Green plant response rating (green foxtail; [7]) | Foxtail, Green plant response rating (green foxtail; [8]) | Plant response rating (0 to 100), Foxtail, Green (green foxtail; Preemergence, 250 g ai/ha) | Foxtail, Green plant response rating (green foxtail; [9]) | Bermudagrass plant response rating (bermudagrass; [7]) | Bermudagrass plant response rating (bermudagrass; [8]) | Plant response rating (0 to 100), Bermudagrass (bermudagrass; Preemergence, 250 g ai/ha) | Bermudagrass plant response rating (bermudagrass; [9])
20: Corn plant response rating (corn [2]; [12])
70: Plant response rating (0 to 100), Corn (corn [1]; Preemergence, 250 g ai/ha) | Barnyardgrass plant response rating (barnyardgrass [6]; [10]) | Barnyardgrass plant response rating (barnyardgrass [6]; [12])
80: Plant response rating, Corn (corn [2]; [13]) | Crabgrass, Large plant response rating (crabgrass [4]; [10]) | Crabgrass, Large plant response rating (crabgrass [4]; [11]) | Velvetleaf plant response rating (velvetleaf; [11]) | Barnyardgrass plant response rating (barnyardgrass [6]; [11])
55: Corn plant response rating (corn [1]; [9])
